How the values were obtained:
S. pneumoniae D39V [1] = assay: fitness (endpoint OD595 vs no drug) (fraction); higher = more growth
Procedure, shortened: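 At 37 °C, bacteria in TSB, LB Lennox or CY were grown in 384-well plates from a starting OD595 of 0.01. OD595 was measured every 30 min for 14 h, with the first reading used as background. Fitness is the optical density at the switch to stationary phase as a fraction of the robust mean of no-drug control wells, capped at 1.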

B. subtilis 168 = assay: Bliss interaction score (quartile over a dose matrix) (fitness difference); higher = more antagonism (negative = synergy)
Procedure, shortened: (§1)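 OD595 was read at entry into stationary phase and expressed relative to the robust mean of the no-drug wells on the same plate, capped at 1. The resulting ratio is the fitness value. The Bliss score, observed fitness minus product-based expected fitness with single-drug fitness inferred from combinations, is summarised by quartiles over technical, biological and donor/recipient replicates.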

S. aureus DSM 20231 = assay: as above
Procedure, shortened: as §1

S. aureus Newman = assay: as above
Procedure, shortened: as §1

S. pneumoniae D39V [2] = assay: as above
Procedure, shortened: as §1
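For Bliss interaction score (quartile over a dose matrix) in this document: first quartile when negative (synergy) and third quartile when positive (antagonism).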

CO/N=C(\C(=O)N[C@@H]1C(=O)N2C(C(=O)O)=C(COC(C)=O)CS[C@H]12)c1csc(N)n1 [Cefotaxime] + C[C@@H](O)[C@H]1C(=O)N2C(C(=O)O)=C(SCCNC=N)C[C@H]12 [Imipenem]
fitness (S. pneumoniae D39V [1]; first compound 0.0018 µg/mL, partner 0.005 µg/mL): 0.966 | fitness (S. pneumoniae D39V [1]; first compound 0.0018 µg/mL, partner 0.0065 µg/mL): 0.976 | fitness (S. pneumoniae D39V [1]; first compound 0.0018 µg/mL, partner 0.01 µg/mL): 0.937 | fitness (S. pneumoniae D39V [1]; first compound 0.0018 µg/mL, partner 0.013 µg/mL): ≥ 1 | fitness (S. pneumoniae D39V [1]; first compound 0.0018 µg/mL, partner 0.02 µg/mL): 0.932 | fitness (S. pneumoniae D39V [1]; first compound 0.0018 µg/mL, partner 0.026 µg/mL): 0.973 | fitness (S. pneumoniae D39V [1]; first compound 0.0035 µg/mL, partner 0.005 µg/mL): 0.942 | fitness (S. pneumoniae D39V [1]; first compound 0.0035 µg/mL, partner 0.0065 µg/mL): 0.99 | fitness (S. pneumoniae D39V [1]; first compound 0.0035 µg/mL, partner 0.01 µg/mL): 0.941 | fitness (S. pneumoniae D39V [1]; first compound 0.0035 µg/mL, partner 0.013 µg/mL): ≥ 1 | fitness (S. pneumoniae D39V [1]; first compound 0.0035 µg/mL, partner 0.02 µg/mL): 0.947 | fitness (S. pneumoniae D39V [1]; first compound 0.0035 µg/mL, partner 0.026 µg/mL): 0.942 | fitness (S. pneumoniae D39V [1]; first compound 0.007 µg/mL, partner 0.005 µg/mL): 0.934 | fitness (S. pneumoniae D39V [1]; first compound 0.007 µg/mL, partner 0.0065 µg/mL): 0.634 | fitness (S. pneumoniae D39V [1]; first compound 0.007 µg/mL, partner 0.01 µg/mL): 0.882 | fitness (S. pneumoniae D39V [1]; first compound 0.007 µg/mL, partner 0.013 µg/mL): 0.708 | fitness (S. pneumoniae D39V [1]; first compound 0.007 µg/mL, partner 0.02 µg/mL): 0.87 | fitness (S. pneumoniae D39V [1]; first compound 0.007 µg/mL, partner 0.026 µg/mL): 0.548 | Bliss interaction score (B. subtilis 168): -0.116 | Bliss interaction score (S. aureus DSM 20231): -0.0289 | Bliss interaction score (S. aureus Newman): 0.0648 | Bliss interaction score (S. pneumoniae D39V [2]): 0.0762

CO/N=C(\C(=O)N[C@@H]1C(=O)N2C(C(=O)O)=C(COC(C)=O)CS[C@H]12)c1csc(N)n1 [Cefotaxime] + Clc1ccc(COC(Cn2ccnc2)c2ccc(Cl)cc2Cl)c(Cl)c1 [Miconazole]
fitness (S. pneumoniae D39V [1]; first compound 0.0018 µg/mL, partner 1.073 µg/mL): ≥ 1 | fitness (S. pneumoniae D39V [1]; first compound 0.0018 µg/mL, partner 1.25 µg/mL): 0.919 | fitness (S. pneumoniae D39V [1]; first compound 0.0018 µg/mL, partner 2.145 µg/mL): 0.967 | fitness (S. pneumoniae D39V [1]; first compound 0.0018 µg/mL, partner 2.5 µg/mL): 0.96 | fitness (S. pneumoniae D39V [1]; first compound 0.0018 µg/mL, partner 4.29 µg/mL): 0.94 | fitness (S. pneumoniae D39V [1]; first compound 0.0018 µg/mL, partner 5 µg/mL): 0.936 | fitness (S. pneumoniae D39V [1]; first compound 0.0035 µg/mL, partner 1.073 µg/mL): ≥ 1 | fitness (S. pneumoniae D39V [1]; first compound 0.0035 µg/mL, partner 1.25 µg/mL): 0.866 | fitness (S. pneumoniae D39V [1]; first compound 0.0035 µg/mL, partner 2.145 µg/mL): 0.907 | fitness (S. pneumoniae D39V [1]; first compound 0.0035 µg/mL, partner 2.5 µg/mL): 0.9 | fitness (S. pneumoniae D39V [1]; first compound 0.0035 µg/mL, partner 4.29 µg/mL): 0.866 | fitness (S. pneumoniae D39V [1]; first compound 0.0035 µg/mL, partner 5 µg/mL): 0.911 | fitness (S. pneumoniae D39V [1]; first compound 0.007 µg/mL, partner 1.073 µg/mL): 0.797 | fitness (S. pneumoniae D39V [1]; first compound 0.007 µg/mL, partner 1.25 µg/mL): 0.749 | fitness (S. pneumoniae D39V [1]; first compound 0.007 µg/mL, partner 2.5 µg/mL): 0.789 | fitness (S. pneumoniae D39V [1]; first compound 0.007 µg/mL, partner 4.29 µg/mL): 0.613 | fitness (S. pneumoniae D39V [1]; first compound 0.007 µg/mL, partner 5 µg/mL): 0.796 | Bliss interaction score (B. subtilis 168): 0.104 | Bliss interaction score (S. aureus DSM 20231): -0.0534 | Bliss interaction score (S. aureus Newman): 0.0393 | Bliss interaction score (S. pneumoniae D39V [2]): -0.0628

C[C@@H]1O[C@@H]1P(=O)(O)O [Fosfomycin] + CC[C@H]1OC(=O)[C@H](C)C(=O)[C@H](C)[C@@H](O[C@@H]2O[C@H](C)C[C@H](N(C)C)[C@H]2O)[C@](C)(OC)C[C@@H](C)C(=O)[C@H](C)[C@H]2N(CCCCn3cnc(-c4cccnc4)c3)C(=O)O[C@]12C [Telithromycin]
Bliss interaction score (B. subtilis 168): 0.0824 | Bliss interaction score (S. aureus DSM 20231): 0.0337 | Bliss interaction score (S. aureus Newman): -0.0576 | Bliss interaction score (S. pneumoniae D39V [2]): -0.0329

N#CC(C#N)=NNc1cccc(Cl)c1 [CCCP] + Cc1cc(NS(=O)(=O)c2ccc(N)cc2)no1 [Sulfamethoxazol]
Bliss interaction score (B. subtilis 168): -0.0348 | Bliss interaction score (S. aureus DSM 20231): -0.0343 | Bliss interaction score (S. aureus Newman): -0.0463 | Bliss interaction score (S. pneumoniae D39V [2]): 0.0794

CO/N=C(\C(=O)N[C@@H]1C(=O)N2C(C(=O)O)=C(COC(C)=O)CS[C@H]12)c1csc(N)n1 [Cefotaxime] + CN(C)[C@@H]1C(O)=C(C(N)=O)C(=O)[C@@]2(O)C(O)=C3C(=O)c4c(O)ccc(Cl)c4[C@@](C)(O)[C@H]3C[C@@H]12 [Clortetracycline]
Bliss interaction score (B. subtilis 168): 0.0481 | Bliss interaction score (S. aureus DSM 20231): 0.0917 | Bliss interaction score (S. aureus Newman): 0.0483 | Bliss interaction score (S. pneumoniae D39V [2]): 0.0665

CC1(C)S[C@@H]2[C@H](NC(=O)Cc3ccccc3)C(=O)N2[C@H]1C(=O)O [PenicillinG] + CN(N=O)C(=O)N[C@@H](C=O)[C@@H](O)[C@H](O)[C@H](O)CO [Streptozotocin]
Bliss interaction score (B. subtilis 168): 0.0513 | Bliss interaction score (S. aureus DSM 20231): -0.0545 | Bliss interaction score (S. aureus Newman): -0.0606 | Bliss interaction score (S. pneumoniae D39V [2]): 0.0394

— the supplement of paper PMC10627819
